The results in this text go back to patent publication US8283373B2, “Inhibitors of cytosolic phospholipase A2” (Pfizer Inc., priority 2005, dated 2012).

pIC50: −log10 of the molar value.

What is called pIC50 is −log10 of the IC50, conventionally taken in molar units. High values mean a small IC50, low ones a large IC50.

One test deals with T1, cPLA2α (Homo sapiens, UniProt P47712).
T1 sequence (P47712 1-749): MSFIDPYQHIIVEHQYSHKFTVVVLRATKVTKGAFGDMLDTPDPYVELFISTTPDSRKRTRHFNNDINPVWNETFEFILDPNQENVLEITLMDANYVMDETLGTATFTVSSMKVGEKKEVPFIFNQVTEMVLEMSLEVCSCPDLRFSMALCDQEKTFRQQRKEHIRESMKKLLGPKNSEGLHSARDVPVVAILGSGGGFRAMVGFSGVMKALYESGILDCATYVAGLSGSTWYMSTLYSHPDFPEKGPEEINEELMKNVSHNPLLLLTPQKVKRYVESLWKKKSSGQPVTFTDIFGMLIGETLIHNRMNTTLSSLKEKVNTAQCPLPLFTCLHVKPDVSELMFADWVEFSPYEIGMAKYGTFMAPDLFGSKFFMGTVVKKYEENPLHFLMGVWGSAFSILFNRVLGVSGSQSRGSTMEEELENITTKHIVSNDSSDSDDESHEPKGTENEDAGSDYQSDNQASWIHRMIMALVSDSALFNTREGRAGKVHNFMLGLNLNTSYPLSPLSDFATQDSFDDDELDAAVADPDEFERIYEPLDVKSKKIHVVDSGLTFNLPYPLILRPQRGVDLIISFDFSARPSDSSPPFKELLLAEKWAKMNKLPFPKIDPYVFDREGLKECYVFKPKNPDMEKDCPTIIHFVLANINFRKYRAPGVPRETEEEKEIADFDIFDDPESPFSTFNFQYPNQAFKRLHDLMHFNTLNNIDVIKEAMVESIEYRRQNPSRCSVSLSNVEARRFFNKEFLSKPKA
Kind of test: GLU Micelle Assay. The test is classed as biochemical. Here is the method:
The assay was carried in a 96-well format using a fluorescent plate reader with a 355 nm excitation filter and a 460 nm emission filter (Lab Systems Fluoroscan II, Helsinki, Finland). The assay buffer contained 940 μM Triton X-100, 50 mM Hepes pH 7.4, 0.3 mM EDTA, 1 mM CaCl2 and 300 mM KCl. DTPC (1,2-O-tetradecyl-sn-glycero-3-phosphocholine, Avanti) at a final concentration of 120 μM was added the day of the experiment and GLU (7-Hydroxycoumarinyl-γ-linolenate, Biomol Research Lab, Inc.) at a final concentration of 90 μM was added immediately prior to each assay.
Compounds (10 μL) dissolved in DMSO were placed in duplicate wells of a black 96-well plate. Wells corresponding to the positive and negative controls contained DMSO without inhibitors. Just prior to the experiment, 200 μL assay buffer containing 90 μM GLU and 120 μM DTPC was added to all wells in the assay plate. Assay buffer (50 μL) was added to the negative, and 50 μL cPLA2α solution ([…] in assay buffer) was added to all other wells to initiate the reaction. The final concentration of enzyme was 1 μg/ml. The content of each well was mixed gently during the addition of the enzyme, and the plate was rapidly transferred to the fluorescent plate reader. The increase in fluorescence was read every 4 min for 84 min. The slope of the resulting line was determined and the inhibition was calculated using the equation below: Percent Inhibition=[1−(slope with inhibitor−slope negative control)/(slope positive control−slope negative control)]×100 Rat Whole Blood Assay

Another test concerns TXB2. Kind of test: Rat Whole Blood Assay (A23187-stimulated TXB2). The test is classed as cell-based. The note with it: A23187 5 μM. Here is the method:
Fresh blood was collected in heparinized tubes by cardiac puncture of male Sprague-Dawley rats. Aliquots of blood (0.6 mL) were incubated with either 6 μL solvent (DMSO), or 6 μL of test compounds at various concentrations for 15 minutes at 37° C. This was followed by incubation of the blood with 6 μL of calcium ionophore, A23187 (Sigma C-7522) diluted in DMSO for 10 min at 37° C. The final concentration of A23187 was 5 μM. DMSO (6 μL) was added in the unstimulated controls. The reactions were stopped by mixing 60 μL cold EDTA to give a final concentration of 20 mM. The blood was centrifuged at 6,500 rpm for 10 min on a microcentrifuge to obtain plasma. A 70 μL aliquot of plasma was mixed with 400 μL cold methanol for protein precipitation. After incubation at −80° C. for 30 min, the supernatant was obtained by centrifuging at 6,500 rpm for 10 min, and was assayed for TXB2 according to the manufacturer's procedure (Assay Designs, Inc.'s ELISA kit #900-002).

As to `O=C(O)c1ccc(CCCc2c(CCNS(=O)(=O)Cc3c(Cl)cccc3Cl)n(C(c3ccccc3)c3ccccc3)c3ccc(Cl)cc23)cc1` [Example 8, 4-{3-[5-chloro-2-(2-{[(2,6-dichlorobenzyl)sulfonyl]amino}ethyl)-1-(diphenylmethyl)-1H-indol-3-yl]propyl}benzoic acid], the pIC50 on cPLA2α is 7.62; with TXB2 (Rattus norvegicus), 7.70.

`Cc1cccc([N+](=O)[O-])c1CS(=O)(=O)NCCc1c(CCOc2ccc(C(=O)O)cc2)c2cc(Cl)ccc2n1C(c1ccccc1)c1ccccc1` [Example 4, 4-(2-{1-benzhydryl-5-chloro-2-[2-methyl-6-nitro-phenylmethanesulfonylamino)-ethyl-1-H-indol-3-yl}ethoxy)-benzoic acid]: the pIC50 is 7.27 against cPLA2α and 7.70 in the test with TXB2.

Consider `O=C(O)c1ccc(OCCc2c(CCNS(=O)(=O)Cc3ccccc3C(F)(F)F)n(C(c3ccccc3)c3ccccc3)c3ccc(Cl)cc23)cc1` [Example 5, 4-(2-{5-chloro-1-(diphenylmethyl)-2-[2-({[2-(trifluoromethyl)benzyl]sulfonyl}amino)ethyl]-1H-indol-3-yl}ethoxy)benzoic acid], for which the pIC50 on cPLA2α was 7.59; with TXB2 (Rattus norvegicus), 7.70.

Turning to `Cc1noc(C)c1-c1ccccc1CS(=O)(=O)NCCc1c(CCCc2ccc(C(=O)O)cc2)c2cc(Cl)ccc2n1C(c1ccccc1)c1ccccc1` [Example 33, 4-{3-[5-chloro-2-[2-({[2-(3,5-dimethylisoxazol-4-yl)benzyl]sulfonyl}amino)ethyl]-1-(diphenylmethyl)-1H-indol-3-yl]propyl}benzoic acid], the negative logarithm of the IC50 (pIC50) at cPLA2α is 7.66; in the test on TXB2 (Rattus norvegicus), 7.70.

With `CN(C)c1ccc(-c2ccccc2CS(=O)(=O)NCCc2c(CCCc3ccc(C(=O)O)cc3)c3cc(Cl)ccc3n2C(c2ccccc2)c2ccccc2)cc1` [Example 35, 4-{3-[5-chloro-2-{2-[({[4′-(dimethylamino)biphenyl-2-yl]methyl}sulfonyl)amino]ethyl}-1-(diphenylmethyl)-1H-indol-3-yl]propyl}benzoic acid], the results for the pIC50 against cPLA2α and in the test with TXB2 (Rattus norvegicus) were 7.57 and 7.30, respectively.

Take `CC(c1ccccc1C(F)(F)F)S(=O)(=O)NCCc1c(CCS(=O)(=O)c2ccc(CCC(=O)O)cc2)c2cc(Cl)ccc2n1C(c1ccccc1)c1ccccc1` (stereo not shown) [Example 39, 3-(4-{[2-(5-chloro-1-(diphenylmethyl)-2-{2-[({1-[2-(trifluoromethyl)phenyl]ethyl}sulfonyl)amino]ethyl}-1H-indol-3-yl)ethyl]sulfonyl}phenyl)propanoic acid]: the figures for the pIC50 against cPLA2α and in the test on TXB2 (Rattus norvegicus) were 7.17 and 7.70, respectively.

Consider `O=C(O)c1ccc(OCCc2c(CCNS(=O)(=O)Cc3c(Br)cccc3Br)n(C(c3ccccc3)c3ccccc3)c3ccc(Cl)cc23)cc1` [Example 3, 4-{2-[5-chloro-2-(2-{[(2,6-dibromobenzyl)sulfonyl]amino}ethyl)-1-(diphenylmethyl)-1H-indol-3-yl]ethoxy}benzoic acid], for which the pIC50 against cPLA2α was 7.27; in the test with TXB2 (Rattus norvegicus) it was 7.22.

Consider `O=C(O)c1ccc(CCCc2c(CCNS(=O)(=O)Cc3c(Br)cccc3Br)n(C(c3ccccc3)c3ccccc3)c3ccc(Cl)cc23)cc1` [Example 7, 4-{3-[5-chloro-2-(2-{[(2,6-dibromobenzyl)sulfonyl]amino}ethyl)-1-(diphenylmethyl)-1H-indol-3-yl]propyl}benzoic acid], for which the values for the pIC50 against cPLA2α and in the test on TXB2 (Rattus norvegicus) were 7.74 and 7.52, respectively.

As for `O=Cc1ccccc1CS(=O)(=O)NCCc1c(CCCc2ccc(C(=O)O)cc2)c2cc(Cl)ccc2n1C(c1ccccc1)c1ccccc1` [Example 16, 4-{3-[5-chloro-1-(diphenylmethyl)-2-(2-{[(2-formylbenzyl)sulfonyl]amino}ethyl)-1H-indol-3-yl]propyl}benzoic acid], the pIC50 at cPLA2α was 7.64; with TXB2 (Rattus norvegicus), 7.30.

Regarding `COC(=O)c1ccccc1CS(=O)(=O)NCCc1c(CCCc2ccc(C(=O)O)cc2)c2cc(Cl)ccc2n1C(c1ccccc1)c1ccccc1` [Example 13, 4-(3-{5-chloro-1-(diphenylmethyl)-2-[2-({[2-(methoxycarbonyl)benzyl]sulfonyl}amino)ethyl]-1H-indol-3-yl}propyl)benzoic acid], the figures for the pIC50 at cPLA2α and in the test with TXB2 (Rattus norvegicus) were 7.59 and 7.52, respectively.

`O=C(O)c1ccc(CCCc2c(CCNS(=O)(=O)Cc3ccccc3Br)n(C(c3ccccc3)c3ccccc3)c3ccc(Cl)cc23)cc1` [Example 24, 4-{3-[2-(2-{[(2-bromobenzyl)sulfonyl]amino}ethyl)-5-chloro-1-(diphenylmethyl)-1H-indol-3-yl]propyl}benzoic acid]: the negative-log IC50 (pIC50) against cPLA2α was 8.10; in the test with TXB2 (Rattus norvegicus), 7.52.

Turning to `O=C(O)c1ccc(CCCc2c(CCNS(=O)(=O)Cc3ccccc3O)n(C(c3ccccc3)c3ccccc3)c3ccc(Cl)cc23)cc1` [Example 40, 4-{3-[5-chloro-1-(diphenylmethyl)-2-(2-{[(2-hydroxybenzyl)sulfonyl]amino}ethyl)-1H-indol-3-yl]propyl}benzoic acid], the values for the pIC50 against cPLA2α and with TXB2 (Rattus norvegicus) were 7.14 and 7.22, respectively.

Turning to `O=C(O)CCc1ccc(S(=O)(=O)CCc2c(CCNS(=O)(=O)Cc3ccccc3C(F)(F)F)n(C(c3ccccc3)c3ccccc3)c3ccc(Cl)cc23)cc1` [Example 38, 3-{4-[(2-{5-chloro-1-(diphenylmethyl)-2-[2-({[2-(trifluoromethyl)benzyl]sulfonyl}amino)ethyl]-1H-indol-3-yl}ethyl)sulfonyl]phenyl}propanoic acid], the pIC50 on cPLA2α was 8.15; with TXB2 (Rattus norvegicus), 8.00.

As to `N#Cc1ccccc1-c1ccccc1CS(=O)(=O)NCCc1c(CCCc2ccc(C(=O)O)cc2)c2cc(Cl)ccc2n1C(c1ccccc1)c1ccccc1` [Example 37, 4-{3-[5-chloro-2-[2-({[(2′-cyanobiphenyl-2-yl)methyl]sulfonyl}amino)ethyl]-1-(diphenylmethyl)-1H-indol-3-yl]propyl}benzoic acid], the pIC50 at cPLA2α is 7.60; in the test on TXB2 (Rattus norvegicus), 7.52.

With `O=C(O)c1ccc(CCCc2c(CCNS(=O)(=O)Cc3ccccc3CN3CCOCC3)n(C(c3ccccc3)c3ccccc3)c3ccc(Cl)cc23)cc1` [Example 17, 4-(3-{5-chloro-1-(diphenylmethyl)-2-[2-({[2-(morpholin-4-ylmethyl)benzyl]sulfonyl}amino)ethyl]-1H-indol-3-yl}propyl)benzoic acid], the pIC50 was 8.00 against cPLA2α and 7.70 in the test on TXB2 (Rattus norvegicus).

Consider `O=C(O)c1ccc(CCCc2c(CCNS(=O)(=O)Cc3ccccc3-c3ccccc3)n(C(c3ccccc3)c3ccccc3)c3ccc(Cl)cc23)cc1` [Example 29, 4-{3-[2-(2-{[(biphenyl-2-ylmethyl)sulfonyl]amino}ethyl)-5-chloro-1-(diphenylmethyl)-1H-indol-3-yl]propyl}benzoic acid], for which the pIC50 against cPLA2α was 7.74; in the test on TXB2 (Rattus norvegicus) it was 7.30.

Take `O=C(O)c1ccc(CCCc2c(CCNS(=O)(=O)Cc3ccccc3CO)n(C(c3ccccc3)c3ccccc3)c3ccc(Cl)cc23)cc1` [Example 19, 4-(3-{5-chloro-1-(diphenylmethyl)-2-[2-({[2-(hydroxymethyl)benzyl]sulfonyl}amino)ethyl]-1H-indol-3-yl}propyl)benzoic acid]: the results for the pIC50 against cPLA2α and in the test on TXB2 (Rattus norvegicus) were 7.66 and 7.52, respectively.
